Measured values reported in patent publication US8288364B2, “Botanically derived composition and a process thereof” (Indus Biotech Private Limited, priority 2008, dated 2012).

Key:
[1] = Body weight in early stages of diabetes induced with alloxan; type: in vivo, Wistar rats; settings: alloxan-diabetic rats, test compound 60 mg/kg, pioglitazone 5 mg/kg; for Body weight, 0 day: day 0; for % Change in Body weight: day 0 to day 30, numbers are printed as INCREASE; for Body weight, 15 day: day 15; for Body weight, 30 day: day 30
Method: (§1) Male Wistar rats were injected with alloxan monohydrate (160 mg/kg i.p.) to induce diabetes. After 48 hours of injection blood glucose levels were determined using glucose estimation kits. Animals with blood glucose levels above 300 mg/dl were selected and divided into four groups of 6 rats in each group.
(§2) The animals were given respective drug solutions in stipulated dose, for 30 days. On the 0th, 15th and 30th day of treatment, the blood sugar levels and body weights were analyzed.
There was a significant decrease in body weight in diabetic group as compared to non diabetic group. In the test compound treated group the body weight on 0 day was 185.16 & 240.83 on 30 day. […] There was a 29% increase in weight in the animals treated with the test compound that was an excellent result when compared to the 9% decrease in body weight of the untreated diabetic animals. The below table provides the percentage change in body weight of groups treated with respective treatments.

[2] = tested on: Diabetes Induced with Alloxan; experiment: Blood sugar levels in early stages of diabetes induced with alloxan; type: in vivo, Wistar rats; settings: alloxan-diabetic rats; for Blood sugar level, 0 day: day 0; for Blood sugar level, 0 day / Blood sugar level, 15 day / Blood sugar level, 30 day: doses: test compound 60 mg/kg, fenugreek seed powder 2 g/kg, crude alcohol extract 1 g/kg, pioglitazone 5 mg/kg; for Change in BSL (%): day 0 to day 30, numbers are printed as DECREASE, doses as in the row (60 mg/kg, 2 g/kg, 1 g/kg, 5 mg/kg); for Blood sugar level, 15 day: day 15 of treatment; for Blood sugar level, 30 day: day 30 of treatment
Method: as §1
Group 1: Non-Diabetic Control
Group 2: Diabetes Control
Group 3: Test Compound (60 mg/kg)
Group 4: Pioglitazone (Standard Drug) (5 mg/kg)
as §2
Serum was obtained by centrifuging the blood obtained by retero-orbital blood withdrawal at 7000 rpm at 4° C. for 15 min. The serum obtained was collected for Blood sugar level determinations. The below table provides data on blood glucose levels of various groups.

[3] = tested on: 3T3-L1 cells; experiment: Deoxy-D-Glucose, 2-(1-14C) uptake in 3T3-L1 cells (insulin-like action); type: cell-based
Method: This example studies the time and dose dependant uptake of Deoxy-D-Glucose, 2-(1-^14C) uptake in 3T3-L1 cells treated with the test compound. 3T3-L1 cells were cultured (DMEM+FBS) in a 24 well plate and were treated with a 5 μg/ml and a 50 μg/ml dose of the test compound for 10 or 30 min. Cells treated with 100 nM insulin was used as a positive control. Radioactivity (cpm) was measured with TopCount (Packard).

[4] = Body composition (anabolic/androgenic activity) in castrated immature rats, 4 weeks of treatment; type: in vivo, Wistar rats
Text: Immature male Wistar rats weighing about 55 gm (±5 gm) were selected for the study. These rats were anesthetized by anesthetic ether and castrated. After 4 weeks of treatment, animals were sacrificed and the seminal vesicles, the ventral prostate, and the muscle levator ani carefully dissected and weighed. Body weight of the animals was registered at the beginning and at the end of the experiment. Increase in weight of seminal vesicles and ventral prostate indicates androgenic activity, whereas increase in weight of levator ani muscles was considered to indicate anabolic activity.

[5] = Levator ani muscle mass in alloxan-diabetic animals; type: in vivo, Wistar rats; settings: alloxan-diabetic animals on treatment, FIG. 8
Text: A subsequent study was done to evaluate the impact of the increase in weight on the muscle content of the animals.
The levitor ani muscles of these animals were checked for the drugs effect on muscle mass.

[6] = Double-blind, placebo-controlled clinical study: strength (isotonic bench and leg press); type: in vivo, human; settings: volunteers, 500 mg, 2 month study, weight lifted
Method: (§3) Subsequently, a double-blind, placebo-controlled study in 49 pre-trained volunteers was conducted to assess the safety and efficacy of the test compound. This 2 month study was conducted with supplementation of 500 mg of the test compound and the volunteers were on resistance training 4 times/week. During this study the effect of the test compound on body composition (fat content) and strength were evaluated.
Since this product was used to increase muscle mass, the effect of the test compound on the strength of the volunteers was evaluated. This was done by conducting isotonic repetitions of bench and leg press exercises. An increase in strength was determined based on an increase in weight lifted during these two exercises.

[7] = tested on: serum testosterone; experiment: Serum testosterone by radioimmunoassay in castrated immature rats after four weeks of treatment; type: in vivo, Wistar rats; settings: daily treatment, 35 mg/kg p.o., RIA
Method: In addition, to rule out any possibility of androgenic activity in the increase in body weight and muscle mass, the serum testosterone levels were measured.
Immature male Wistar rats weighing about 55 gm (±5gm) were selected for the study. These rats were anesthetized by anesthetic ether and castrated. After four weeks of treatment, the blood was withdrawn from the rats by retro orbital puncture method and analyzed for serum testosterone, which was measured with the help of radioimmunoassay (RIA) kit.

[8] = Double-blind, placebo-controlled clinical study: body composition (body fat) by bioelectric impedance and hydrostatic weighing; type: in vivo, human; settings: volunteers, 500 mg supplementation, 8 weeks, resistance training 4 times/week
Method: as §3
Body density was analyzed by bioelectric impedance and hydrostatic weighing. Based on these parameters fat free mass was calculated. From the FIG. 5 it is concluded that during the study period of 8 weeks, the test product reduced the body fat by 12%. This is a significant reduction.

| Molecule | Body weight, 0 day [1] | % Change in Body weight [1] | Body weight, 15 day [1] | Body weight, 30 day [1] | Blood sugar level, 0 day [2] | Change in BSL (%) [2] | Blood sugar level, 15 day [2] | Blood sugar level, 30 day [2] | also measured |
| --- | --- | --- | --- | --- | --- | --- | --- | --- | --- |
| CCc1ccc(CCOc2ccc(CC3SC(=O)NC3=O)cc2)nc1 (centres unmarked) [Pioglitazone, reference compound] | 165 ± 5.41 gm | 25% INCREASE | 198.5 ± 6.45 gm | 207.83 ± 4.49 gm | 438.66 ± 6.37 mg/dL | 35.8% DECREASE | 376.33 ± 7.29 mg/dL | 281 ± 5.92 mg/dL |  |
| OCC1O[C@H](OCC2O[C@@H](O[C@@H]3C(CO[C@H]4OC(CO)[C@H](O)C(O)C4O)O[C@@H](O)C(O)C3O)C(O)C(O)[C@@H]2O)C(O)C(O)[C@H]1O (some centres unmarked) [test compound] | 185.16 gm | 29% | 215.83 ± 6.05 gm | 240.83 gm | 416.5 ± 14.42 mg/dL | 55% | 294.5 ± 12.22 mg/dL | 187 ± 9.33 mg/dL | Body weight, 0 day ([1]; listed as Test Compound): 185.16 ± 6.53 gm; % Change in Body weight ([1]; listed as Test Compound): 29% INCREASE; Body weight, 30 day ([1]; listed as Test Compound): 240.83 ± 6.42 gm; glucose uptake ([3]; dose of 5 μg/ml, 10 or 30 min): enhanced glucose uptake; weight of the levator ani muscles (anabolic activity) ([4]; 4 weeks of treatment): significant increase; weights of organs of the male reproductive system (prostate, seminal vesicle and penis); androgenic activity ([4]; 4 weeks, 10 and 35 mg/kg): did not increase; change in body weight ([4]; four-week treatment, 10 mg/kg p.o): did not cause any change; body weight compared with control group ([4]; four-week treatment, 35 mg/kg p.o): significant rise; Change in BSL (%) ([2]; listed as Test Compound): 55% DECREASE; muscle mass (levitor ani muscles) [5]: significant increase; increase in strength compared to placebo, bench press [6]: 100%; increase in strength compared to placebo, leg press [6]: 80%; total serum testosterone levels [7]: no significant increase; reduction of body fat [8]: 12% |
| C[C@]12CC[C@H]3[C@@H](CCC4=CC(=O)CC[C@@]43C)[C@@H]1CC[C@@H]2O [testosterone, reference compound] |  |  |  |  |  |  |  |  | body weight compared with control group ([4]; four weeks, 10 mg s.c biweekly): significant rise |
| Insulin [reference compound] |  |  |  |  |  |  |  |  | stimulation of glucose uptake ([3]; 100 nM insulin, 10 min): 1.74 fold |
